The target of the test is T1, KRas G12V (Homo sapiens, UniProt P01116, G12V).
T1 construct: Biotinylated KRas G12V (aa 1-169) loaded with GDP nucleotide; biotin (biotinylated)
Nature of the test: SOS1-Catalyzed Nucleotide Exchange Assay, KRas G12V (Method 2). Conditions: 5 nM KRas G12V (aa 1-169, GDP-loaded), 50 nM SOS1. In kind it is biochemical. As to the method: KRas G12V [Method 2]: Compounds were pre-dispensed via Echo liquid handling (acoustic, touch-free) to generate assay ready plates (ARP). More precisely, a 10-point concentration response curve for each compound was prepared with appropriate top concentration (1 μM, 10 μM, 100 μM). Biotinylated KRas G12V (aa 1-169) loaded with GDP nucleotide and Streptavidin-Europium (SA-EU, Columbia Biosciences) were preincubated in assay buffer (20 mM HEPES pH 7.4, 150 mM NaCl, 5 mM MgCl2, 1 mM DTT, 0.01% Brij-35, 0.3 mg/mL BSA) on ice for 30 min. Separately SOS1 (aa 546-1049) and EDA-GTP-DY647P1 (Jena Bioscience) were preincubated in assay buffer on ice for 30 min. After 30 minutes of incubation for the assay components, 5 μL buffer and 5 μL of KRas G12V-SA-Eu were added to each well of the ARP. After a further 30 min, 5 μL of SOS1-EDA-GTP-D467P1 was added to start the nucleotide exchange reaction. Final concentration in the assay were 5 nM KRas G12V, 50 nM SOS1 (aa 564-1049). The reaction was allowed to proceed for 60-90 minutes after which the plate was read on a plate reader. After normalization of the raw data, the data was fit to a four-parameter logistic curve.

Where [1] appears, read: Method 2, B, read-out: KRas G12V IC50 (nM) (Method 2, B).
Where [2] appears, read: Method 2, A, read-out: KRas G12V IC50 (nM) (Method 2, A).

Read-outs that look alike come from different tables or passages of the source.

T1 sequence (P01116 1-169 G12V): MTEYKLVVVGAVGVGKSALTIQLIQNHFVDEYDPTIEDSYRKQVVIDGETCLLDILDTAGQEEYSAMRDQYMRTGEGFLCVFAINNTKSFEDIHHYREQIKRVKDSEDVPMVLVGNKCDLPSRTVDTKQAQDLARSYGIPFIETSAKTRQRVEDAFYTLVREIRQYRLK

For the compound `CN1C[C@H](F)C[C@H]1COc1nc2c3cnc(c(F)c3n1)-c1cc(N)cc(Cl)c1CCCCC(=O)NCCC1CCCN2C1` (stereo partly drawn) [Compound 179a, 3^5-amino-3^3-chloro-2^8-fluoro-2^2-(((2S,4R)-4-fluoro-1-methylpyrrolidin-2-yl)methoxy)-9-aza-2(4,7)-pyrido[4,3-d]pyrimidina-1(1,3)-piperidina-3(1,2)-benzenacycloundecaphan-8-one], the IC50 under setting [1] was 100 to 1000 nM.

For the compound `O=C1CCCCc2ccc3[nH]ncc3c2-c2ccc3c(nc(OC[C@@]45CCCN4C[C@H](F)C5)nc3c2F)N2CCCC(CCN1)C2` (stereo partly drawn) [Compound 166a, 2^8-fluoro-2^2-(((2R,7aS)-2-fluorotetrahydro-1H-pyrrolizin-7a(5H)-yl)methoxy)-1^1H-6-aza-2(7,4)-quinazolina-1(4,5)-indazola-3(1,3)-piperidinacycloundecaphan-7-one], under setting [1], the IC50 is at most 100 nM.

Turning to `CN1CCC[C@H]1COc1nc2c3cnc(c(F)c3n1)-c1cc(N)cc(Cl)c1CCCCC(=O)NCCC1CCCN2C1` (stereo partly drawn) [Compound 171a, 3^5-amino-3^3-chloro-2^8-fluoro-2^2-(((S)-1-methylpyrrolidin-2-yl)methoxy)-9-aza-2(4,7)-pyrido[4,3-d]pyrimidina-1(1,3)-piperidina-3(1,2)-benzenacycloundecaphan-8-one], the IC50 under setting [1] was 100 to 1000 nM.

Take `O=C1CCCc2c(F)ccc3cccc(c23)-c2ncc3c(nc(OC[C@@]45CCCN4C[C@H](F)C5)nc3c2F)N2CCOCC(CN1)C2` (stereo partly drawn) [Compound 193a, 2^8,3^7-difluoro-2^2-(((2R,7aS)-2-fluorotetrahydro-1H-pyrrolizin-7a(5H)-yl)methoxy)-8-aza-1(4,6)-oxazepana-2(4,7)-pyrido[4,3-d]pyrimidina-3(1,8)-naphthalenacyclononaphan-7-one]: the IC50 by setting is: under setting [2], 100 to 1000 nM; under setting [1], 100 to 1000 nM.

`Nc1cc2c(cc1F)CCCCC(=O)NCCC1CCCN(C1)c1nc(OC[C@@]34CCCN3C[C@H](F)C4)nc3c(F)c-2ncc13` (stereo partly drawn) [Compound 159a, 3^5-amino-2^8,3^4-difluoro-2^2-(((2R,7aS)-2-fluorotetrahydro-1H-pyrrolizin-7a(5H)-yl)methoxy)-9-aza-2(4,7)-pyrido[4,3-d]pyrimidina-1(1,3)-piperidina-3(1,2)-benzenacycloundecaphan-8-one]: the IC50 under setting [2] was 1000 to 10000 nM.

For the compound `Nc1cc2c3c(c(F)ccc3c1)CCCC(=O)NCC1COCCN(C1)c1nc(OC[C@@]34CCCN3C[C@H](F)C4)nc3c(F)c-2ncc13` (stereo partly drawn) [Compound 192a, 3^3-amino-2^8,3^7-difluoro-2^2-(((2R,7aS)-2-fluorotetrahydro-1H-pyrrolizin-7a(5H)-yl)methoxy)-8-aza-1(4,6)-oxazepana-2(4,7)-pyrido[4,3-d]pyrimidina-3(1,8)-naphthalenacyclononaphan-7-one], the IC50 runs as follows: under setting [2], 100 to 1000 nM; under setting [1], 100 to 1000 nM.

Regarding `O=C1CCCc2c(F)ccc3cc(O)cc(c23)-c2ncc3c(nc(OC[C@@]45CCCN4C[C@H](F)C5)nc3c2F)N2CCOCC(CCN1)C2` (stereo partly drawn) [Compound 194a, 2^8,3^7-difluoro-2^2-(((2R,7aS)-2-fluorotetrahydro-1H-pyrrolizin-7a(5H)-yl)methoxy)-3^3-hydroxy-8-aza-1(4,6)-oxazepana-2(4,7)-pyrido[4,3-d]pyrimidina-3(1,8)-naphthalenacyclodecaphan-7-one], the IC50 reads like this: under setting [2], at most 100 nM; under setting [1], at most 100 nM.

Consider `CN1CCC[C@H]1CCOc1nc2c3cnc(c(F)c3n1)-c1cc(N)cc(Cl)c1CCCCC(=O)NCCC1CCCN2C1` (stereo partly drawn) [Compound 176a, 3^5-amino-3^3-chloro-2^8-fluoro-2^2-(2-((S)-1-methylpyrrolidin-2-yl)ethoxy)-9-aza-2(4,7)-pyrido[4,3-d]pyrimidina-1(1,3)-piperidina-3(1,2)-benzenacycloundecaphan-8-one], for which the IC50 under setting [1] fell in the range of 100 to 1000 nM.

On to `Nc1cc2c(c(Cl)c1F)CCCCC(=O)NCCC1CCCN(C1)c1nc(OC[C@@]34CCCN3C[C@H](F)C4)nc3c(F)c-2ccc13` (stereo partly drawn) [Compound 174a, 3^5-amino-3^3-chloro-2^8,3^4-difluoro-2^2-(((2R,7aS)-2-fluorotetrahydro-1H-pyrrolizin-7a(5H)-yl)methoxy)-9-aza-2(4,7)-quinazolina-1(1,3)-piperidina-3(1,2)-benzenacycloundecaphan-8-one], for which, under setting [1], the IC50 was 100 to 1000 nM.

On to `O=C1CCCCc2ccc3[nH]ncc3c2-c2ncc3c(nc(OC[C@@]45CCCN4C[C@H](F)C5)nc3c2F)N2CCCC(CCN1)C2` (stereo partly drawn) [Compound 167a, 2^8-fluoro-2^2-(((2R,7aS)-2-fluorotetrahydro-1H-pyrrolizin-7a(5H)-yl)methoxy)-1^1H-6-aza-2(7,4)-pyrido[4,3-d]pyrimidina-1(4,5)-indazola-3(1,3)-piperidinacycloundecaphan-7-one], for which, under setting [1], the IC50 is at most 100 nM.

`Nc1cc2c(c(Cl)c1F)CCCCC(=O)NCCC1(O)CCCN(C1)c1nc(OC[C@@]34CCCN3C[C@H](F)C4)nc3c(F)c-2ccc13` (stereo partly drawn) [Compound 180a, 3^5-amino-3^3-chloro-2^8,3^4-difluoro-2^2-(((2R,7aS)-2-fluorotetrahydro-1H-pyrrolizin-7a(5H)-yl)methoxy)-13-hydroxy-9-aza-2(4,7)-quinazolina-1(1,3)-piperidina-3(1,2)-benzenacycloundecaphan-8-one]: the IC50 under setting [1] lay in the range of 100 to 1000 nM.

In the case of `Nc1cc2c(c(Cl)n1)CCCCC(=O)NCCC1CCCN(C1)c1nc(OC[C@@]34CCCN3C[C@H](F)C4)nc3c(F)c-2ncc13` (stereo partly drawn) [Compound 186a, 1^6-amino-1^2-chloro-2^8-fluoro-2^2-(((2R,7aS)-2-fluorotetrahydro-1H-pyrrolizin-7a(5H)-yl)methoxy)-6-aza-2(7,4)-pyrido[4,3-d]pyrimidina-1(4,3)-pyridina-3(1,3)-piperidinacycloundecaphan-7-one], under setting [1], the IC50 was in the range of 100 to 1000 nM.

Consider `Nc1ccc2c(c1F)-c1ncc3c(nc(OC[C@@]45CCCN4C[C@H](F)C5)nc3c1F)N1CCCC(CCNC(=O)CCCC2)C1` (stereo partly drawn) [Compound 160a, 3^5-amino-2^8,3^6-difluoro-2^2-(((2R,7aS)-2-fluorotetrahydro-1H-pyrrolizin-7a(5H)-yl)methoxy)-9-aza-2(4,7)-pyrido[4,3-d]pyrimidina-1(1,3)-piperidina-3(1,2)-benzenacycloundecaphan-8-one], for which the IC50 under setting [2] was in the range of 10000 to 30000 nM.

For `O=C1CCCCc2c(Cl)cc3[nH]ncc3c2-c2ncc3c(nc(OC[C@@]45CCCN4C[C@H](F)C5)nc3c2F)N2CCOCC(CN1)C2` (stereo partly drawn) [Compound 203a, 3^6-chloro-2^8-fluoro-2^2-(((2R,7aS)-2-fluorotetrahydro-1H-pyrrolizin-7a(5H)-yl)methoxy)-3^1H-9-aza-1(4,6)-oxazepana-2(4,7)-pyrido[4,3-d]pyrimidina-3(4,5)-indazolacyclodecaphan-8-one], the IC50 under setting [1] was at most 100 nM.

For `Nc1cc(Cl)c2c(c1)-c1c(Cl)cc3c(nc(OC[C@@]45CCCN4C[C@H](F)C5)nc3c1F)N1CCCC(CCNC(=O)CCCC2)C1` (stereo partly drawn) [Compound 155a, 3^5-amino-2^6,3^3-dichloro-2^8-fluoro-2^2-(((2R,7aS)-2-fluorotetrahydro-1H-pyrrolizin-7a(5H)-yl)methoxy)-9-aza-2(4,7)-quinazolina-1(1,3)-piperidina-3(1,2)-benzenacycloundecaphan-8-one], the IC50 under setting [2] is 1000 to 10000 nM.

Turning to `CN(C)CC1(COc2nc3c4cnc(c(F)c4n2)-c2cc(N)cc(Cl)c2CCCCC(=O)NCCC2CCCN3C2)CC1` (stereo not shown) [Compound 178, 3^5-amino-3^3-chloro-2^2-((1-((dimethylamino)methyl)cyclopropyl)methoxy)-2^8-fluoro-9-aza-2(4,7)-pyrido[4,3-d]pyrimidina-1(1,3)-piperidina-3(1,2)-benzenacycloundecaphan-8-one], under setting [1], the IC50 fell in the range of 100 to 1000 nM.

Take `Nc1cc(Cl)c2c(c1)-c1ncc3c(nc(OC[C@@]45CCCN4C[C@H](F)C5)nc3c1F)N1C[C@H](F)C[C@H](C1)NC(=O)CCCC2` [Compound 201a, (1^3R,1^5R)-3^5-amino-3^3-chloro-1^5,2^8-difluoro-2^2-(((2R,7aS)-2-fluorotetrahydro-1H-pyrrolizin-7a(5H)-yl)methoxy)-9-aza-2(4,7)-pyrido[4,3-d]pyrimidina-1(1,3)-piperidina-3(1,2)-benzenacyclononaphan-8-one]: the IC50 under setting [1] was in the range of 100 to 1000 nM.

Consider `O=C1CCCc2c(F)ccc3cc(O)cc(c23)-c2ccc3c(nc(OC[C@@]45CCCN4C[C@H](F)C5)nc3c2F)N2CCCC(CCN1)C2` (stereo partly drawn) [Compound 175a, 2^8,3^7-difluoro-2^2-(((2R,7aS)-2-fluorotetrahydro-1H-pyrrolizin-7a(5H)-yl)methoxy)-3^3-hydroxy-8-aza-2(4,7)-quinazolina-1(1,3)-piperidina-3(1,8)-naphthalenacyclodecaphan-7-one], for which the IC50 under setting [1] is at most 100 nM.

Consider `O=C1CCCc2c(F)ccc3cc(O)cc(c23)-c2ncc3c(nc(OC[C@@]45CCCN4C[C@H](F)C5)nc3c2F)N2CCCC(CCN1)C2` (stereo partly drawn) [Compound 118a, 2^8,3^7-difluoro-2^2-(((2R,7aS)-2-fluorotetrahydro-1H-pyrrolizin-7a(5H)-yl)methoxy)-3^3-hydroxy-8-aza-2(4,7)-pyrido[4,3-d]pyrimidina-1(1,3)-piperidina-3(1,8)-naphthalenacyclodecaphan-7-one], for which the IC50 under setting [1] is at most 100 nM.

For the origin of these results see patent US20260364089A1, “PYRIDOPYRIMIDINE KRAS INHIBITORS” (Treeline Biosciences, Inc., priority 2022, published 2026).
